From patent US12570612B2, “Substituted nitrogen heterocyclic compound and anesthetic effect thereof” (priority 2019, dated 2026)
Entries after “also recorded” stand apart in the source; their conditions may differ. Like-named read-outs stand apart in the source and are kept apart here.

Assays:
[1] = tested on: Sprague-Dawley rats; assay: Pharmacological characteristics at equivalent doses (2ED50), Group A compounds; format: in vivo; conditions: 2ED50, tail vein
[2] = tested on: H295R cell line; assay: Adrenocortical function in vitro test: secretion of cortisol and corticosterone, Group A compounds; format: cell-based; conditions: H295 cells; for EC50: Homo sapiens, 0.1-10000 nM, HPLC-MS/MS
[3] = tested on: Sprague-Dawley rats; assay: Pharmacological effect and adverse reactions under the equivalent dose (2ED50), Group D compounds; format: in vivo
From the text: (§1) Evaluation index: onset time: from the completion of drug injection to the disappearance of forepaw righting reflex in rats; Duration of anesthesia: the time from the disappearance of rat forepaw righting reflex to the recovery of rat forepaw righting reflex; Recovery time of anesthesia: the time from the […] to complete recovery;

[4] = tested on: Sprague-Dawley rats; assay: animal or person; conditions: for ED50: Rattus norvegicus
Protocol: (§2) Adult male Sprague-Dawley rats (250-300 g) were selected for the experiment. […] The anesthesia effects of the compounds were assessed in rats using a LORR assay and a period >30 s was considered as an indicator of general anesthesia.

[5] = tested on: Sprague-Dawley rats; assay: Pharmacological effect and adverse reactions under the equivalent dose (2ED50), Group C compounds; format: in vivo
From the text: as §1

[6] = tested on: Sprague-Dawley rats; assay: animal or person; format: in vivo; conditions: for ED50: Rattus norvegicus
From the text: (§3) Evaluating indicator: The end point of anesthesia: LORR was used as the end point of anesthesia; General anesthesia effect: the disappearance of forepaw righting reflex in rats lasting for 30 seconds is taken as the index of general anesthesia effect; Anesthesia recovery index: the recovery of rat forepaw righting reflex was used as the index of anesthesia recovery.

[7] = tested on: H295R cell line; assay: Adrenocortical function in vitro test: secretion of cortisol and corticosterone, Group B compounds; format: cell-based; conditions: H295R cells; for EC50: Homo sapiens, NCI-H295R, 0.1-10000 nM, HPLC-MS/MS
[8] = tested on: circulatory function of rats; assay: Circulatory function of rats (MAP, HR) by implanted telemetry, Group D compounds; conditions: 2ED50, rats, FIG. 19-22
From the text: (§5) First, the animal model was established, and the left ventricular catheter, abdominal aorta catheter and electrocardiogram wire were placed. At least one week after the operation, the signal can be collected to start the test. At the beginning of the experiment, after the placement of the indwelling needle in the tail vein of rats, connect the extension tube, put the rats together with the feeding cage on the signal receiver and start collecting data. […] All compounds or drugs were given at a constant volume of 0.6 ml at a uniform rate of 0.1 ml/s.
Evaluation indexes: Collect the blood pressure, heart rate and other data of rats during and 15 minutes after administration, and judge the effect of the compound of the invention on the circulatory function of rats with the indexes of mean arterial pressure (MAP) and heart rate (HR).

[9] = tested on: Sprague-Dawley rats; assay: animal or person; format: in vivo; conditions: for ED50: Rattus norvegicus; remark: listed apart in the source
From the text: as §3, with “the disappearance of forepaw righting reflex (lorr)” for “LORR”

[10] = tested on: circulatory function of rats; assay: Circulatory function of rats (MAP, HR) by implanted telemetry, Group C compounds; conditions: 2ED50, rats, FIG. 13-16
From the text: as §5

[11] = tested on: circulatory function of rats; conditions: rat, in vivo
Protocol: First, animal models were established. […] At least one week after surgery, data were recorded.
Finally, the pharmacological effects, adverse reactions, and behavioral manifestations of the rats were observed and recorded
After data acquisition, the test was stopped.

[12] = tested on: Sprague-Dawley rats; assay: animal or person; conditions: for ED50: Rattus norvegicus; remark: listed apart in the source
Protocol: as §2

[13] = tested on: circulatory function of rats; conditions: rat, in vivo; remark: listed apart in the source
[14] = tested on: SD rats
How it was run: (§4)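 Adult male SD rats (250–350 g) received continuous infusion. Read-outs: time from infusion start to […]; after 1 h infusion, time from stop to return of forepaw turning reflex and to full recovery.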

[15] = tested on: Sprague-Dawley rats; format: in vivo; conditions: tail vein
[16] = tested on: SD rats; remark: listed apart in the source
How it was run: as §4

[17] = tested on: adrenal cortex function; conditions: rat, in vivo
[18] = target: T1, 11β-Hydroxylase (Homo sapiens, UniProt P15538); conditions: cited from earlier work
T1 sequence (P15538 25-503): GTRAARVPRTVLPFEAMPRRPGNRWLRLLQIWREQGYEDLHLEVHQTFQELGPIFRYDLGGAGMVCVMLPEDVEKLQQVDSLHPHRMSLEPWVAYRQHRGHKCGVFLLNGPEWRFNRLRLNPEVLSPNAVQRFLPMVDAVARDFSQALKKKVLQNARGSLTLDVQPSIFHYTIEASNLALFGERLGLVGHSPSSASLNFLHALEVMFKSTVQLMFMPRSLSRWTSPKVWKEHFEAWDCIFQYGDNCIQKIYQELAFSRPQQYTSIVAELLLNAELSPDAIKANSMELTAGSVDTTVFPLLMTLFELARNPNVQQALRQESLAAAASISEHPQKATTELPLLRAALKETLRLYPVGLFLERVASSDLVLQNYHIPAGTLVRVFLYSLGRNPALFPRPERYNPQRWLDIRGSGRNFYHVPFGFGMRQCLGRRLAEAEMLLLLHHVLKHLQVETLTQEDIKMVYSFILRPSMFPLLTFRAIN

[19] = tested on: Sprague-Dawley rats
Protocol: Adult male Sprague-Dawley rats with body weight ranging from 250 to 300 gm were selected for continuous infusion test. […] Time to recovery of righting reflex from stopping infusion, and time to fully awake from stopping infusion were recorded.

[20] = tested on: Sprague-Dawley rats; assay: Continuous infusion at 2 times the MIR for 1 hour, Group B compounds; format: in vivo
[21] = tested on: Sprague-Dawley rats; format: in vivo; conditions: tail vein; remark: listed apart in the source
[22] = tested on: adrenal cortex function; conditions: rat, in vivo; remark: listed apart in the source
[23] = read-out: EC50 (Corticosterone)
[24] = male, Sprague-Dawley, rat, in vivo
[25] = 2ED50, tail vein, rats, n=8, unit s
[26] = equivalent dose (2 × ED50), number of rats of n = 8
[27] = after 1 hour continuous infusion at 2 times the MIR, SD rats
[28] = continuous infusion 2 x MIR 1 hour, rats affected/rats
[29] = continuous tail vein infusion at 2 times the MIR, SD rats
[30] = equivalent dose (2ED50), number of rats of n = 8
[31] = LORR, up and down method, tail vein, rats, brackets = 95% confidence limit, read-out: ED50

Compound: CC(C)c1cccc(C(C)C)c1O [Propofol, propofol, reference compound]
- Onset time [1]: 0.19 ± 0.03 min
- Righting reflex duration [1]: 8.36 ± 2 min
- Types and incidence of adverse reactions ([1]; (animals affected/animals)): Intermittent Tremor(6/8),; also recorded: Bucking (5/8),; also recorded: Tongue stretching(4/8),; also recorded: Forelimb rigidity (2/8),; also recorded: Hindlimb rigidity(2/8)
- Corticosterone as an indicator to determine the presence of inhibition [2]: 0
- Cortisol as an indicator to determine the presence of inhibition [2]: 0
- EC50 [2, 23]: > 10 µM
- EC50 ([2]; read-out: EC50 (Cortisol)): > 10 µM
- Adverse reaction: Convulsions ([3]; rat, in vivo): 0
- Adverse reaction: Cough, broken-winded ([3]; rat, in vivo): 0
- Adverse reaction: Euphoria ([3]; rat, in vivo): 0
- Adverse reaction: Four limbs rigidity ([3]; rat, in vivo): 1
- Adverse reaction: Slower breathing, Tetany convulsion ([3]; rat, in vivo): 2
- Adverse reaction: Systemic stiffness, Convulsions, Opisthotonus ([3]; rat, in vivo): 0
- Adverse reaction: Tongue stretching ([3]; rat, in vivo): 0
- Adverse reaction: Tremor ([3]; rat, in vivo): 2
- Onset time ([3]; rat, in vivo): <30 s
- Righting reflex duration ([3]; rat, in vivo): 8.53 ± 1.52 min
- Sedation duration ([3]; rat, in vivo): 14.77 ± 3.50 min
- ED50 [4]: 5.51 mg/kg
- Minimal lethal dose [4, 24]: 28 mg/kg
- Approximate therapeutic index ([4]; rats): 5
- Adverse reaction: Convulsions ([5]; rat, in vivo): 0
- Adverse reaction: Cough, broken-winded ([5]; rat, in vivo): 0
- Adverse reaction: Euphoria ([5]; rat, in vivo): 0
- Adverse reaction: Slower breathing, Tetany convulsion ([5]; rat, in vivo): 2
- Adverse reaction: Systemic stiffness, Convulsions, Opisthotonus ([5]; rat, in vivo): 0
- Adverse reaction: Tongue stretching ([5]; rat, in vivo): 0
- Adverse reaction: Tremor ([5]; rat, in vivo): 0
- Adverse reaction: the four limbs rigidity ([5]; rat, in vivo): 2
- Onset time ([5]; rat, in vivo): <30 s
- Righting reflex duration ([5]; rat, in vivo): 8.53 ± 1.52 min
- Sedation duration ([5]; rat, in vivo): 14.77 ± 3.50 min
- ED50 [6]: 5.01 mg/kg
- Minimal lethal dose [6, 24]: 22.6 mg/kg
- Approximate therapeutic index ([6]; rats): 4.0
- Corticosterone as an indicator to determine the presence of inhibition [7]: 0
- Cortisol as an indicator to determine the presence of inhibition [7]: 0
- EC50 [7, 23]: > 10 µM
- EC50 ([7]; read-out: EC50 (Cortisol)): > 10 µM
- effect on the circulatory function (MAP, HR) [8]: significant inhibition on the circulatory system function
- ED50 [9]: 5.01 mg/kg
- Minimal lethal dose [9, 24]: 22.6 mg/kg
- Approximate therapeutic index ([9]; rats): 4.0
- effect on the circulatory function (MAP, HR) [10]: significant inhibition on the circulatory system function
- inhibitory effect on the circulatory function (MAP, HR) [11]: significant inhibition of the circulatory function
- ED50 [12]: 5.51 mg/kg
- Minimal lethal dose [12, 24]: 28 mg/kg
- Approximate therapeutic index ([12]; rats): 5
- inhibitory effect on the circulatory function (MAP, HR) [13]: significant inhibition of the circulatory function

Compound: CCOC(=O)c1cncn1C(C)c1ccccc1 (stereo not shown) [Etomidate, reference compound]
- Corticosterone as an indicator to determine the presence of inhibition [2]: 2
- Cortisol as an indicator to determine the presence of inhibition [2]: 2
- EC50 [2, 23]: > 0.01 µM
- EC50 ([2]; read-out: EC50 (Cortisol)): > 0.001 µM
- Onset time [3, 25]: <30 s
- Adverse reaction: Convulsions [3, 26]: 0
- Adverse reaction: Cough, broken-winded [3, 26]: 0
- Adverse reaction: Euphoria [3, 26]: 0
- Adverse reaction: Four limbs rigidity [3, 26]: 2
- Adverse reaction: Slower breathing, Tetany convulsion [3, 26]: 0
- Adverse reaction: Systemic stiffness, Convulsions, Opisthotonus [3, 26]: 0
- Adverse reaction: Tongue stretching [3, 26]: 4
- Adverse reaction: Tremor [3, 26]: 3
- ED50 [4]: 0.75 mg/kg
- Minimal lethal dose ([4]; rats): 12.75 mg/kg
- After the infusion is stopped: Righting reflex recovery time [14, 27]: 15 to 20 min
- Recovery time after stopping infusion [14, 27]: 30 to 40 min
- Types and incidence of adverse reactions: Hindlimb rigidity [14, 28]: Hindlimb rigidity(2/6)
- Types and incidence of adverse reactions: Myoclonus [14, 28]: 4/6
- Types and incidence of adverse reactions: Tongue stretching [14, 28]: Tongue stretching(2/6),
- Types and incidence of adverse reactions: Tremor [14, 28]: 6/6
- Sedation onset time [14, 29]: <5 min
- Onset time [5, 25]: <30 s
- Adverse reaction: Convulsions [5, 30]: 0
- Adverse reaction: Cough, broken-winded [5, 30]: 0
- Adverse reaction: Euphoria [5, 30]: 0
- Adverse reaction: Slower breathing, Tetany convulsion [5, 30]: 0
- Adverse reaction: Systemic stiffness, Convulsions, Opisthotonus [5, 30]: 0
- Adverse reaction: Tongue stretching [5, 30]: 4
- Adverse reaction: Tremor [5, 30]: 6
- Adverse reaction: the four limbs rigidity [5, 30]: 0
- ED50 [6, 31]: 0.74 mg/kg
- Minimal lethal dose [15]: 13.8 mg/kg
- Corticosterone as an indicator to determine the presence of inhibition [7]: 2
- Cortisol as an indicator to determine the presence of inhibition [7]: 2
- EC50 [7, 23]: > 0.01 µM
- EC50 ([7]; read-out: EC50 (Cortisol)): > 0.001 µM
- After the infusion is stopped: Righting reflex recovery time [16, 27]: 15 to 20 min
- Recovery time after stopping infusion [16, 27]: 30 to 40 min
- Types and incidence of adverse reactions: Hindlimb rigidity [16, 28]: Hindlimb rigidity(2/6)
- Types and incidence of adverse reactions: Myoclonus [16, 28]: 4/6
- Types and incidence of adverse reactions: Tongue stretching [16, 28]: Tongue stretching(2/6),
- Types and incidence of adverse reactions: Tremor [16, 28]: 6/6
- Sedation onset time [16, 29]: <5 min
- effect on the circulatory function (MAP, HR) [8]: slight inhibitory effect on the circulatory function after administration, but soon rises to near the baseline
- ED50 [9, 31]: 0.74 mg/kg
- effect on the circulatory function (MAP, HR) [10]: slight inhibitory effect on the circulatory function after administration, but soon rises to near the baseline
- effect on the synthesis of adrenal cortex hormone (serum corticosterone) [17]: obvious inhibitory effect on adrenal cortex function
- inhibition of 11β-Hydroxylase [18]: can inhibit the key enzymes in the synthesis pathway of adrenocortical hormone
- Recovery time after stopping infusion ([19]; LORR maintained for 1 hour, 2 times the MIR): 25 to 30 min
- Onset time ([19]; continuous infusion, 2 times the MIR): 4 to 5 min
- Types and incidence of adverse reactions ([19]; continuous infusion, (animals affected/animals)): Tonguestretching(5/6); also recorded: Tremor(6/6), Facial; also recorded: muscle twitching (4/6)
- Recovery time after stopping infusion ([20]; after 1 hour continuous infusion at 2 times the MIR, rats): 25 to 30 min
- Types and incidence of adverse reactions: Facial muscle twitching [20, 28]: 4/6
- Types and incidence of adverse reactions: Tongue stretching [20, 28]: Tongue stretching (5/6)
- Types and incidence of adverse reactions: Tremor [20, 28]: Tremor (6/6), Facial
- Onset time ([20]; continuous tail vein infusion at 2 times the MIR, emulsion, rats): 4 to 5 min
- Minimal lethal dose [21]: 13.8 mg/kg
- inhibitory effect on the circulatory function (MAP, HR) [11]: almost no inhibitory effect on the circulatory function
- ED50 ([12]; LORR in rats, tail vein, brackets = 95% confidence limit): 0.75 mg/kg
- Minimal lethal dose ([12]; rats): 12.75 mg/kg
- inhibitory effect on the circulatory function (MAP, HR) [13]: almost no inhibitory effect on the circulatory function
- effect on the synthesis of adrenal cortex hormone (serum corticosterone) [22]: obvious inhibitory effect on adrenal cortex function
